Converted amounts (≈) assume the structure as drawn.
Key:
Treponema hyodysenteriae = test: in vitro minimum inhibitory concentration / activity against Treponema hyodysenteriae; format: cell-based
Description: Compound G 8 has been tested "in vitro" against Treponema hyodysenteriae by a known technique. The minimum inhibitory concentration (the lowest concentration of compound in a dilution series where growth is inhibited) was 0.1 μg/ml.

[1] = Acute Toxicity of G 8 in the Rat; format: in vivo; conditions: for Dead/Treated within 21 days / Body Weight (m ± SEM), Termination: first experiment
Description: (§1) Furthermore, G8 compound was tested for acute toxicity by several modes of administration in four species, namely mouse, rat, guinea pig and rabbit. […] The test results are given below in tables 1, 2, 3 and 4.
Acute Toxicity of G 8 in the Rat

[2] = Subacute toxicity of G 8 in the mouse; format: in vivo; conditions: for SGPT / SGOT: 1 g/kg/day, 24 hrs. after last dose
Description: (§2) In view of the favorable acute toxicity data, compound G 8 was administered orally in sub-acute, but relatively large doses, to mice and rats for 15 days.
Subacute toxicity of G 8 in the mouse
Daily dose: 500 mg. G 8 by gastric gavage for 15 days
Daily dose: 1 g/kg/day for 15 days
b. SGOT and SGPT (24 hrs. after last dose)

swine dysentery = swine dysentery in swine herd fed G 8 in rations; format: in vivo; conditions: 400 g/ton in rations, herd with dysentery
Description: Compound G 8 is mixed with swine feed rations at a level of 200 g/ton and was fed to swine housed in an area where there has been a previous outbreak of swine dysentery. Another herd was housed in a similar area, where there has been a previous outbreak of dysentery. They were fed the same rations as the first herd, but with no G 8 or other drug.
Many members of the herd developed symptoms of dysentery. G 8 was then added with the rations at a level of 400 g/ton.

[3] = Subacute toxicity of G 8 in female rats; format: in vivo, rat; conditions: 2 g/kg/day, gastric gavage, 21 days
Description: as §2
Subacute toxicity of G 8 in female rats
Daily dose: […] of G 8 in female rats by gastric
Daily dose: 2 g/kg/day of G 8 by gastric gavage for 21 days

[4] = teratogenetic study with male and female mice and rats; format: in vivo
Description: Furthermore, teratogenetic study was conducted with male and female mice and rats.

[5] = Acute toxicity of G 8 in female mice; format: in vivo, mouse
Description: as §1
Acute toxicity of G 8 in female mice

[6] = Acute toxicity of G 8 in the guinea pig by oral administration; format: in vivo
Description: as §1
Acute toxicity of G 8 in the guinea pig by oral administration

[7] = growth promotion in baby-swines fed G 8 in rations; format: in vivo, swine
Description: The effect of compound G 8 was tested in feed rations for baby-swines.
Compound G 8 was added at a dosage level of 100 g/ton of feed. Five replicate groups of 10 animals (5 males and 5 females), age one day, were fed the ration containing G 8 and compared to 5 replicate groups of animals (5 males and 5 females) which received the same ration but without G 8.
The test period was 28 days.

[8] = Chronic toxicity in female mice; format: in vivo
Text: Chronic toxicity has been studied in female mice.

[9] = Acute toxicity of G 8 in the rabbit by esophageal administration; format: in vivo
Description: as §1
Acute toxicity of G 8 in the rabbit by esophageal administration

[10] = acute toxicity by several modes of administration in four species (overall); format: in vivo, guinea pig and rabbit; conditions: mouse, rat, guinea pig, rabbit
Description: as §1

COc1ccc(O)c(C(O)c2c[n+]([O-])c3ccccc3[n+]2[O-])c1 (centres unmarked) [G 8, quinoxalyl-N^1,N^4-dioxide-2-hydroxy-5-methoxy-phenylcarbinol]
action against Treponema hyodysenteriae (specificity) (Treponema hyodysenteriae): clearly specific action against Treponema hyodysenteriae
MIC (Treponema hyodysenteriae; Brachyspira hyodysenteriae, read-out: minimum inhibitory concentration): 0.1 µg/mL (≈ 0.318 µM)
Dead/Treated within 7 days ([1]; cumulative data regardless of animal sex, intraperitoneal, 500 mg/kg): 4/16
Dead/Treated within 7 days ([1]; cumulative data regardless of animal sex, oral, 4000 mg/kg): 0/16
Dead/Treated within 21 days ([1]; female, endoperitoneal, 500 mg/kg): 2/4
Dead/Treated within 21 days ([1]; female, oral, 4000 mg/kg): 0/4
Body Weight (m ± SEM), Termination ([1]; female, oral, 4000 mg/kg, start 201.2 ± 4.2, vehicle 189.2 ± 3.9 to 230.0 ± 10.5): 238.2 ± 12.1 g
Dead/Treated within 21 days ([1]; male, endoperitoneal, 500 mg/kg): 1/4
Body Weight (m ± SEM), Termination ([1]; male, endoperitoneal, 500 mg/kg, start 234.0 ± 6.2, vehicle 230.0 ± 5.7 to 324.0 ± 8.7): 314.3 ± 10.3 g
Dead/Treated within 21 days ([1]; male, oral, 4000 mg/kg): 0/4
Body Weight (m ± SEM), Termination ([1]; male, oral, 4000 mg/kg, start 234.5 ± 13.8, vehicle 233.7 ± 3.7 to 331.0 ± 0.5): 288.7 ± 13.8 g
Dead/Treated within 7 days ([1]; second experiment, female, intraperitoneal, 500 mg/kg): 0/4
Body weight (±SE), Termination ([1]; second experiment, female, intraperitoneal, 500 mg/kg, start 232.5 ± 5.9): 218.2 ± 7.0 g
Dead/Treated within 7 days ([1]; second experiment, female, oral, 4000 mg/kg): 0/4
Body weight (±SE), Termination ([1]; second experiment, female, oral, 4000 mg/kg, start 252.0 ± 16.6): 253.5 ± 12.1 g
Dead/Treated within 7 days ([1]; second experiment, male, intraperitoneal, 500 mg/kg): 2/4
Dead/Treated within 7 days ([1]; second experiment, male, oral, 4000 mg/kg): 0/4
Body weight (±SE), Termination ([1]; second experiment, male, oral, 4000 mg/kg, start 222.5 ± 6.2): 231.7 ± 15.7 g
Dead/Treated ([2]; 500 mg/kg/day, gastric gavage, 15 days): 0/10
Fresh organ to body weight ratio, Kidneys ([2]; 500 mg/kg/day, gastric gavage, 15 days, vehicle 1.4 ± 0.1): 1.5 ± 0.1
Fresh organ to body weight ratio, Liver ([2]; 500 mg/kg/day, gastric gavage, 15 days, vehicle 5.2 ± 0.2): 5.9 ± 0.3
% Body weight change (m ± SE) ([2]; 500 mg/kg/day, gastric gavage, 15 days, vehicle 20.4 ± 4.2): -8.1 ± 3.9%
Dead/Treated ([2]; 1 g/kg/day for 15 days, oral, in adraganth gum): 3/12
% Body weight change ([2]; 1 g/kg/day for 15 days, oral, in adraganth gum, vehicle 25.04 ± 1.18): 16.27 ± 1.31%
Dead/Treated ([2]; 1 g/kg/day for 15 days, oral, in water): 2/12
% Body weight change ([2]; 1 g/kg/day for 15 days, oral, in water, vehicle 24.54 ± 0.64): 18.5 ± 0.75%
SGPT ([2]; oral, in adraganth gum, vehicle 6): 10 Units/ml
SGOT ([2]; oral, in adraganth gum, vehicle 119): 132 Units/ml
SGPT ([2]; oral, in water, vehicle 4): 9 Units/ml
SGOT ([2]; oral, in water, vehicle 116): 124 Units/ml
dysentery symptoms of diseased members (swine dysentery): the diseased members became free from dysentery symptoms
spread of the disease (swine dysentery): The spread of the disease was halted
Average percent weight of fresh organs (m ± SE), Lung ([3]; 5 animals, NS, vehicle 0.85 ± 0.06): 1.08 ± 0.09%
Average percent weight of fresh organs (m ± SE), Kidneys ([3]; 5 animals, NS, vehicle 0.95 ± 0.04): 1.04 ± 0.3%
Average percent weight of fresh organs (m ± SE), Liver ([3]; 5 animals, vehicle 3.45 ± 0.07): 4.54 ± 0.10%
Dead/Treated ([3]; death caused by a mistake in esophagus incannulation): 1/6
Body weight in g (m ± SE), Termination ([3]; start 204.1 ± 2.0, vehicle 200.0 ± 4.1 to 233.2 ± 5.1): 210.6 ± 9.6 g
malformations [4]: No malformations in either group were observed
number of young delivered live at birth [4]: comparable with controls
Dead/Treated animals ([5]; endoperitoneal, 250 mg/kg, after 7 days): 0/18
Dead/Treated animals ([5]; endoperitoneal, 500 mg/kg, after 7 days): 6/12
Dead/Treated animals ([5]; endoperitoneal, 1000 mg/kg, after 2 days): 6/6
Dead/Treated animals ([5]; endoperitoneal, 1000 mg/kg, after 7 days): 6/6
Dead/Treated animals ([5]; endoperitoneal, 2000 mg/kg, after 1 day): 6/6
Dead/Treated animals ([5]; endoperitoneal, 2000 mg/kg, after 7 days): 6/6
Dead/Treated animals ([5]; oral, 1000 mg/kg, after 7 days): 0/12
Dead/Treated animals ([5]; oral, 2000 mg/kg, after 7 days): 0/12
Dead/Treated animals ([5]; oral, 4000 mg/kg, after 4 days): 1/12
Dead/Treated animals ([5]; oral, 4000 mg/kg, after 7 days): 1/12
Dead/Treated within 21 days ([6]; 500 mg/kg): 0/4
Dead/Treated within 21 days ([6]; 1000 mg/kg): 1/4
Dead/Treated within 21 days ([6]; 2000 mg/kg): 5/6
Dead/Treated within 21 days ([6]; 4000 mg/kg): 6/6
Improvement, % (body weight gain) ([7]; 100 g/ton of feed, 28 days, combined average vs ration without G 8): 3.1%
Improvement, % (feed/gain ratio) ([7]; 100 g/ton of feed, 28 days, vs ration without G 8): 2.8%
Feed/gain ratio ([7]; 100 g/ton of feed, 28 days, without G 8: 1.82): 1.77
Body weight gain/swine, Females ([7]; 100 g/ton of feed, 28 days, without G 8: 5740 g): 5880 g
Body weight gain/swine, Combined average ([7]; 100 g/ton of feed, 28 days, without G 8: 6000): 6190
Body weight gain/swine, Males ([7]; 100 g/ton of feed, 28 days, without G 8: 6150 g): 6480 g
growth promoting action ([7]; qualitative statement): effective growth promoting factor
Chronic toxicity [8]: very satisfactory
Dead/Treated within 7 days ([9]; 500 mg/kg): 0/2
Dead/Treated within 7 days ([9]; 1000 mg/kg): 0/4
Body weight (m ± SE), Termination ([9]; 1000 mg/kg, start 2037 ± 104.3, vehicle 2135 ± 75 to 2262 ± 215): 1922.5 ± 71.5 g
Dead/Treated within 7 days ([9]; 2000 mg/kg): 0/2
Body weight, Termination ([9]; 2000 mg/kg, start 2250-2150): 2180 + 2140 g
order of acute toxicity [10]: low order toxicity
order of acute toxicity ([10]; listed as G8): low order of toxicity

Source: patent US4634702A, “Quinoxalinemethanol compounds for combatting swine dysentery and as growth promoting factors, method of preparation, and compositions containing them” (priority 1983, dated 1987)
